Results taken from PMC3206815, “An Essential Farnesylated Kinesin in Trypanosoma brucei” (PLoS ONE, 2011).

Molecular target: T1, Kinesin^CaaX (Trypanosoma brucei, UniProt Q388Z9)
T1 construct: gene Tb10.389.1270; truncated N-terminal 340-residue motor domain plus coil (full length 832 residues), N-terminal 6xHis, E. coli BL21 soluble lysate, about 44 kDa
T1 sequence (Q388Z9 1-340): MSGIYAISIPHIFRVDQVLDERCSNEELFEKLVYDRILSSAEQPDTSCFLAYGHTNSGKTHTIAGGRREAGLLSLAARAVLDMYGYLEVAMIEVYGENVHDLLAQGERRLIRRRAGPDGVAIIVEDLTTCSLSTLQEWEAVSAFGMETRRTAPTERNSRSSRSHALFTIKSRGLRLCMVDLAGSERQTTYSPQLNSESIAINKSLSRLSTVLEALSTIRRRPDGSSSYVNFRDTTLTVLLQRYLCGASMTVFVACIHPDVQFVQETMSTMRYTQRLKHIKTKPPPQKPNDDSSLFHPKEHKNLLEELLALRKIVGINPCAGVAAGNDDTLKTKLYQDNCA
Test: microtubule gliding motility assay
Type: biochemical
Details: 1 mM MgATP, BRB80 pH 6.9, taxol-stabilised bovine microtubules; E. coli lysate with recombinant motor domain

Compound: Nc1ncnc2c1ncn2[C@@H]1O[C@H](COP(=O)(O)OP(=O)(O)OP(=O)(O)O)[C@@H](O)[C@H]1O [ATP]
- microtubule gliding motility assay: both ATP and the Kinesin^CaaX motor domain were required to move microtubules
